Consider one compound from ChEMBL document CHEMBL1147397, “Biemnasterol, a new cytotoxic sterol with the rare 22,25-diene side chain, isolated from the marine sponge Biemna sp” (J Nat Prod, 1993).

One experiment concerns KB. The experiment is described as follows: Cytotoxicity against human KB cells. Format: functional, cell-based.
A further experiment has as its system L1210. Put plainly: Cytotoxicity against mouse L1210 cells. Format: functional, cell-based.

In brackets after ≈: the same amount, converted by molar mass.

As a reminder, the IC50 is the midpoint of a concentration-inhibition curve. High values mean weaker potency, low ones greater potency. `C=C(C)[C@H](C)/C=C/[C@@H](C)[C@H]1CC[C@H]2C3=C[C@@H](O)[C@@]4(O)C[C@@H](O)CC[C@]4(C)[C@H]3CC[C@]12C` [BIEMNASTEROL]: the values for the IC50 in the experiment with KB and with L1210 were 1.3 µg/mL (≈ 3.03 µM) and 3 µg/mL (≈ 7 µM), respectively.
